Series [1] relates to synaptosomal calcium channels. As to the kind of experiment: Microscreen assay: K+-stimulated 45Ca uptake by synaptosomes. Format: biochemical, rat. The protocol: The screening method used to test calcium blocking activity in GH4 C1 cells of venom preparations, as described above, was modified as follows for determining the effect of DOC1 on synaptosomal calcium uptake.
After the buffers were made, the osmolarity of the quench buffer was adjusted by dilution with ddH2 O to approximately equal to the average of the osmolarities of the other 3 buffers. All the buffers were made up in ddH^2 O only.
For basal uptake: 5 μl NEN stock+995 μl low K+Ca buffer.
For depolarized (i.e., high K^+) uptake: 5 μl NEN+995 μl high K+Ca buffer.
The synaptosome preparation described below was an adoption of a published procedure. [Hajos F., Brain Res. 93:485-489 (1975)].
Basal buffer used was of the following composition: Basal buffer, pH 7.4, was of following composition: NaCl 147 mM, KCl 3 mM, HEPES 10 mM, Dextrose 10 mM, MgCl2 1.2 mM, and EGTA-Tris 1 mM. The high-K^+ buffer was the same as the basal buffer except that concentrations of NaCl and KCl were 95 mM and 55 mM, respectively.
Synaptosomes were prepared from CD male rats of 4 to 6 weeks (50-75 g). Rats were killed by decapitation with guillotine, and the skull bone was opened in the center with the pointed blade of dissection scissors. The bone was then peeled away with a bone cutter and the brain pried with a micro spatula. […]

For series [2], the system named is DHP-resistant R-channels (N1E-115 cells). The series is classed as cell-based, murine.
Series [3] relates to L-type calcium channels (GH4 C1 cells). As to the kind of experiment: Whole-cell voltage-clamp electrophysiology, GH4 C1 cells. The series is classed as cell-based, rat.
Series [4] concerns T-type calcium channels (N1E-115 cells). Format: cell-based, murine.
Series [5] relates to L-channels? (cortical neurons). Put plainly: Block of K-stimulated 45Ca uptake, cortical neurons. Format: cell-based. The source says:
Summarized in the Table below are results of experiments designed to study the effect of DOC1 on calcium channels by calcium 45 uptake measurement and electrophysiological method, both of which are described above.

Series [6] concerns Na current, N1E-115 cells. Format: cell-based, murine.
In series [7] the test system is dihydropyridine binding sites on the L-type calcium channels. Particulars: up to 0.6 units/ml; rat brain membranes. The text has this:
Other compounds which act through the same binding site as the dihydropyridines will inhibit this [^3 H]nimodipine binding.

The test system of series [8] is L-type calcium channels (GH4 C1 cells). Put plainly: Microscreen assay: K+-stimulated 45Ca uptake by GH4C1 clonal pituitary cells. Format: cell-based, rat.
Experimental: Frozen crude venom (40 μl) was thawed on ice and mixed with 210 μl of ice-cold 0.1% trifluoroacetic acid (TFA) in H2 O. The solution was centrifuged at room temperature for 5 min. at 13,000 rpm with an Eppendorf Centrifuge, and 240 μl of the supernatant was applied to a reversed-phase C18 HPLC column (100×250 mm, 5 μm bead size, 100 Å pore size, prepacked NGA column from The NEST Group). HPLC was performed using an acetonitrile gradient of 0 to 30% in 0.1% TFA in 105 min. at a flow rate of 4.0 ml/min. The elution was monitored by absorbance at 214 nm and 254 nm, and the fractions were collected manually according to the elution profile. Samples representing 5% of each fraction (corresponding to 2 μl crude venom per sample) were dried by Speed Vac (Savant), suspended in a buffer, and tested for their ability to block ^45 Ca^+ 2 influx into rat GH4C1 cells (see "Microscreen Assay for L-Type Calcium Channel Blockers" below).
Microscreen Assay for L-Type Calcium Channel Blockers
The rat GH4 C1 pituitary cells, a widely available cell line obtained from Dr. Armen Tashjian, Harvard Medical School, was used to measure effect of DOC preparations on calcium influx into cells.
Cell stocks were kept frozen in liquid nitrogen until needed. One ampule was thawed and then seeded onto a T-75 culture flask and grown to confluency. Thereafter, the cells were treated with a 1% trypsin solution in Hanks and replated onto T-25 culture flasks at different dilutions. Stocks were then kept growing and split as needed rather than refrozen. The medium used was Ham's F-10 supplied by Media-Tech containing 10% heat-inactivated fetal calf serum purchased from Hyclone. In general, the best response was obtained from 3-5 day post-confluent cells.
Cell suspension from one T-25 flask was prepared as follows for experiments. The flask was gently washed 2× with Hanks. 10 ml of warm 0.02% EDTA-Hanks was added to the flask and allowed to stand for approximately 30 seconds. The plate was sloshed, inverted and banged on a hard surface to dislodge the cells. 0.6 ml CMT-Hanks was immediately added and sloshed. The cells were then transferred to a 15 ml centrifuge tube and spun for 20-30 seconds at 50 g (700 RPM).
With a pipette, the supernatant was gently aspirated and resuspended by triturating the pellet in 0.4 ml HBBS. The cells were then transferred to a 4 ml flat bottom glass vial with a magnetic flea and stirred at the slowest speed.
Thereafter, low K^+ or high K^+ 4.2 μl ^45 Ca stock [eq. to 2 uCi/4.2 μl cells] was added to the tube and incubation was continued for 1 min. 790 μl HBBS was added to quench calcium uptake by the cells. The mixture was then pipetted up and down 2× before it was subjected to filtration in an Amicon filter manifold with a Whatman glass fiber filter. The filter was rinsed 5× with 5 ml HBBS buffer each. It is important that the buffer be squirted at the side of the chimney, straight down and not directly at the filter, since this may wash cells back up off the filter and onto the chimney. It is also important not to cause a whirlpool effect with the wash and create uneven rinsing of the filter.
A separate chimney for each well was used and each chimney was washed after use.
About 1 min. after the rinse, the chimney was removed to relieve the filter of suction to minimize loss of counts due to cell disruption. A set of four blanks (i.e., measurements using the same solutions but without cells) was run at the end of the assay to determine the background counts.
In series [9] the test system is K currents, N1E-115 cells. The series is classed as cell-based, murine. Conditions: @ 1 U/ml.
Another series deals with L-type channels. Particulars: characteristic of dihydropyridines, background; read-out: IC50 for L-channel block; cited from earlier work.
In the next series the test system is stroke. Conditions: cited from earlier work.

Entries after “also recorded” stand apart in the source; their conditions may differ.

As to `NCCCNCCCNCCCNCCCCCNC(=O)Cc1c[nH]c2cccc(O)c12` [DOC1], the “inhibition of K+-stimulated calcium uptake by synaptosomes” value in [1] (concentrations up to 0.5 units/ml, not more than about 30%) is listed as no more than 30%. Also, the “block of synaptosomal calcium channels (in words)” value in [1] (in comparison with block of L-type channels in GH4 C1 cells) is “substantially less effective and potent”. Besides, in series [2], the “Block of DHP-resistant R-channels, N1E-115 cells (electrophys), IC50” value is listed as 0.4 units/ml. Moreover, the “concentration yielding half-maximal inhibition of high-threshold current remaining after nimodipine” value in series [2] (10 μM nimodipine, maximum block 45%, FIG. 12) turned out to be 0.37 U/ml. The “inhibition of high-threshold current in continuous presence of nimodipine (in words)” value in series [2] (1.0 U/ml DOC1, 10 μM nimodipine, FIG. 11A, 11B) was “inhibition of the high-threshold current; also recorded: blocks high-threshold current”. The “reversibility and dose-dependence of the actions” value in [2] (upon washout) is “reversible upon washout and were dose-dependent”. Besides, in series [3] (0.4-1.0 U/ml, depolarizations to between -10 and +20 mV), the “block of current through calcium channels, GH4 C1 cells” value is reported as “up to 80%”. The “reversibility of block of calcium channel current, GH4 C1 cells” value in series [3] (FIG. 10) is reported as “reversibly blocked; also recorded: capable of reversibly blocking electrical current”. Further, the “Block of DHP-sensitive L-type channels, GH4 C1 clonal pituitary cells, electrophysiol, IC50” value in series [3] (puff application) was determined as 1.5 units/ml. For the same compound, in [4] (evoked by weak depolarizations from negative holding potentials, FIG. 11C), the “effect on T-type current (in words)” value is recorded as “did not substantially affect the T-type current; also recorded: no block of putative T-type channels was observed; also recorded: little effect on T-type current”. Also, in series [4] (words in the IC50 column), the “Block of low threshold, inactivating (T?) channels, N1E-115 cells (electrophysiol), IC50” value was “none”. For the same compound, in [5] (IC50 varied among sensitive cultures), the “Block of K-stimulated 45Ca uptake (L-channels?), cortical neurons, IC50” value is given as 0.1-0.4 units/ml. Moreover, the “sensitivity of cortical neuron cultures (in words)” value in [5] (some cultures of cortical neurons) was “insensitive”. For the same compound, in series [6] (Na or K channels, N1E-115 cells), the “specificity for Ca channels over Na or K channels (in words)” value is “striking specificity”. In addition, the “selectivity for Ca versus Na currents” value in [6] (on the order of) was “two”. Further, the “Block of Na current, N1E-115 cells, IC50” value in [6] (words in the IC50 column) is on record as “not signif”. For the same compound, in series [7], the “inhibition of [3H]nimodipine binding (in words)” value is listed as “no significant inhibition; also recorded: no inhibition of nimodipine binding”. For the same compound, the “relative potency DOC1 vs DOC3 in blocking calcium uptake” value in series [8] (FIG. 6, DOC1 compared with DOC3) is reported as “several-fold more potent than DOC3”. Further, in series [8] (GH4 C1 clonal pituitary cells), the “activity in the 45Ca2+ influx assay / block of potassium-stimulated calcium uptake (in words)” value is “blocked potassium-stimulated calcium uptake; also recorded: active; also recorded: possess calcium blocking activity”. Also, in [8] (consistent inhibitory effects, IC50 varied among GH4 C1 cultures), the “Block of DHP-sensitive L-type channels, GH4 C1 clonal pituitary cells, 45Ca uptake, IC50” value is recorded as 0.4-1.5 units/ml. The “Block of K currents, N1E-115 cells” value in [9] was found to be 12%.
In the case of `COC(=O)C1=C(C)NC(C)=C(C(=O)OC)C1c1ccccc1[N+](=O)[O-]` [nifedipine], the half-inhibitory concentration (IC50) in the series with L-type channels is less than 1 µM.
Take `COCCOC(=O)C1=C(C)NC(C)=C(C(=O)OC(C)C)C1c1cccc([N+](=O)[O-])c1` (stereo not shown) [nimodipine]: in the series on L-type channels, the IC50 is less than 1 µM. For the same compound, the cardiovascular side effects result in the series on stroke (background statement) was “significant cardiovascular side effects”. For the same compound, in the series on stroke (clinical trials, Gelmers et al. 1988), the “improvement in the outcome of stroke in clinical trials” value was “Modest improvement in the outcome of stroke”.

These data come from patent US5312928A, “Calcium channel antagonists and methodology for their identification” (priority 1991, dated 1994).
